Tests used:
TLR4 and MyD88 = assay: Western blot of TLR4 and MyD88 in LPS-induced BV-2 cells; format: cell-based, murine; conditions: 1 μg/ml LPS, 10, 20, 50 μM, 6 h
Procedure: Total cell proteins were lysed using cell extraction buffer containing phenylmethylsulfonyl ﬂuoride and protease inhibitor cocktail. The cytosolic and nuclear extracts were collected using the Nuclear and Cytosolic extraction kit. The protein extracts were separated on SDS-PAGE and transferred to PVDF membranes (Millipore). The membrane was blocked with 5% nonfat milk for 1 h at room temperature, and incubated with indicated primary antibodies overnight at 4°C. After washing, the membrane was incubated with secondary antibodies conjugated to horseradish peroxidase (Proteintech, USA) at room temperature for 1 h. Then, the proteins of interest were visualized utilizing a chemiluminescence (ECL) detection system. The relative optical densities were analyzed using the Image Master™ 2D Elite software.

primary microglia cells [1] = assay: NO, TNF-α and IL-1β production in LPS-induced primary microglia; format: cell-based, Sprague Dawley rats; conditions: 1.0 μg/ml LPS, 10, 20, 50 μM
Procedure: (§1) Primary microglia were prepared from the cortical tissue of neonatal (1–3 d) Sprague Dawley rats as [Ni and Aschner (2010)] described and primary cortical neurons were isolated from embryos of pregnant Sprague Dawley rats of E-18 ([Zeng et al., 2012]). All experimental manipulations with the animals was reviewed and approved by the animal experimental ethics committee of Peking University. The animals used in the work were performed in accordance with the Animal Care and Use Guidelines of Peking University.
The NO levels in culture media was determined using a Griess method. Cells were treated with different concentrations of circumdatins in the presence or absence of LPS for 24 h. After that, the supernatant fraction of the culture media was collected and mixed with the same volume of Griess reagent (1% sulfanilamide/0.1% naphthyl ethylene diamine dihydrochloride/2% H3PO4). Then, the absorbance was measured at 540 nm using a microplate spectrophotometer (Thermo Scientifics, USA). The concentration of nitrite was calculated from a calibration curve obtained from standards sodium nitrite solutions.
Cells were treated with different concentrations of circumdatin D in the presence or absence of LPS for indicated time. […] The levels of TNF-α and IL-β in the supernatants were determined by ELISA kits according to the manufacturer's instructions.

primary microglia cells [2] = assay: MTT assay in primary microglia; format: cell-based, Sprague Dawley rats; conditions: untreated and LPS-stimulated cells, 1–100 μM, 48 h
Procedure: as §1
(§2) In vitro cytotoxicity was detected using the MTT assay. Cells were treated with different concentrations of circumdatins in the presence or absence of LPS for 48 h. Then, MTT reagent was added to each well and the plates were further incubated at 37°C for 4 h. The absorbance was read at 570 nm using a microplate spectrophotometer (Thermo Scientifics, USA).
Cell surviability was detected using the MTT assay. Cells were seeded in 96-well plates and incubated overnight, following which the cells were treated with different concentrations of circumdatins with or without 1µg/mL of LPS for indicated time. Then, the cells were subsequently cultured with MTT and incubated for 4 hours at 37°C. Thereafter, the purple formazan dye was dissolved in DMSO and the absorbance was measured at 570 nm.

[3] = test system: AChE in C. elegans CL4176; assay: AChE activity of C. elegans CL4176; format: in vivo, Caenorhabditis elegans; conditions: CL4176 nematodes
Procedure: AChE activity of C. elegans was determined by the method as described ([Xin et al., 2013]). Briefly, approximately 1,000 nematodes with or without circumdatin D treatment were collected and then triturated mechanically in PBS (50 mM, pH 7.4) on ice. The lysate supernatant was collected by centrifugation and AChE activity in the supernatant was determined using modified Ellman method. The protein concentration was determined by BCA protein assay. AChE activity was expressed as U/mg proteins.

[4] = target: T1, acetylcholinesterase (AChE) from Electrophorus electrics (Electric eel) (Electrophorus electricus, UniProt O42275); assay: biochemical; conditions: modified Ellman's colorimetric method; mean ± SD (n = 3)
T1 construct: purchased Sigma Chemical Co. (St Louis, MO, USA)
T1 sequence (O42275 24-633): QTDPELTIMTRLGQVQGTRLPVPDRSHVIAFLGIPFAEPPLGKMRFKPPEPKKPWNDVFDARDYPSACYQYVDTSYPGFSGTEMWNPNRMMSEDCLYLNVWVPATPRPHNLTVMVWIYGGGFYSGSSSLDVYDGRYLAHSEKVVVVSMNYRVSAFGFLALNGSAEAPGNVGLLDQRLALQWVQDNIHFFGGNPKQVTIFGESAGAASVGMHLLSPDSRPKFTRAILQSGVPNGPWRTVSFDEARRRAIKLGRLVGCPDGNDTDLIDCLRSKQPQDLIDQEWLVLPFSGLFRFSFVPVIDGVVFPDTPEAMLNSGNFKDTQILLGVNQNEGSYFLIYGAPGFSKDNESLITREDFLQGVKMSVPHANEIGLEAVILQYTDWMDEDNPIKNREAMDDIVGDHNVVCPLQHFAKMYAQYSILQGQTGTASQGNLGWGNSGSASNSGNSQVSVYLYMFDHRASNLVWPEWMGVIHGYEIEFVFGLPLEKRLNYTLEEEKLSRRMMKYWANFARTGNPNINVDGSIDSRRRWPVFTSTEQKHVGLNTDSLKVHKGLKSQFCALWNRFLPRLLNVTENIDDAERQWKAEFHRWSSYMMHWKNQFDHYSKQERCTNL
Description: Dulbecco's modified Eagle medium (DMEM), α-minimum essential medium (α-MEM) and fetal bovine serum (FBS) were provided by Hyclone (Waltham, USA). 3-(4,5-Dimethylthiazol-2-yl)-2,5-diphenyltetrazolium bromide (MTT), acetylcholinesterase (AChE) from Electrophorus electrics (Electric eel) and lipopolysaccharide (LPS) (Escherichia coli 055: B5) were provided by Sigma Chemical Co. (St Louis, MO, USA). Enzyme-linked immunosorbent assay (ELISA) kits for IL-1β and TNF-α and Griess reagent for nitric oxide (NO) assay kit were provided by ExCell Bio (Shanghai, China). Antibodies for TLR4, MyD88, JNK, p-JNK, p38, p-p38, ERK, p-ERK, IκB, p-IκB, IKK, p-IKK, NF-κB, STAT3、p-STAT3、Jak2, p-Jak2, GAPDH and Histone H3 were purchased from Cell Signaling Technology (Danvers, USA). Antibodies for iNOS and COX-2 were provided by Abcam (Cambridge, UK).
AChE activities in vitro and in vivo were assessed by a modified Ellman's spectrophotometric method ([Szwajgier, 2015]). Briefly, AChE (80 μl) in phosphate buffer (Na2HPO4/NaH2PO4, pH 8.0) and compound (20 μl) diluted in same phosphate buffer were added to 96 microplates as the reaction mixture. The mixture was incubated at 37°C for 30 min before addition of 10 μl 5,5′-dithiobis (2-nitrobenzoic acid) (DTNB) (3 mM) and 10 μl acetylthiocholine iodide (ATCI) (15 mM). After incubation for 20 min, the absorbance was detected at 412 nm using a microplate spectrophotometer (Thermo Scientifics, USA). […] The inhibitory rate of AChE was calculated, and the IC50 values were calculated by GraphPad Prism® 5.0 software (GraphPad Inc., San Diego, USA).

primary cortical neurons = assay: MTT assay in primary neuron-enriched cells; format: cell-based, Sprague Dawley rats; conditions: 48 h, 1–100 μM
Procedure: as §1, §2

COc1ccc2c(c1)C(=O)N1CCC[C@H]1c1nc3ccc(OC)cc3c(=O)n1-2 [circumdatin D]
LPS-induced TLR4 expression (TLR4 and MyD88): dramatically reversed the LPS-induced TLR4 expression
MyD88 expression (TLR4 and MyD88): suppressed the MyD88 expression
LPS-stimulated production of NO, TNF-α and IL-1β (primary microglia cells [1]): significantly decreased the production of NO, TNF-α and IL-1β
toxicity in primary microglial cultures (MTT) (primary microglia cells [2]): low toxicity
AChE activity elevated upon temperature upshift [3]: significantly attenuated these changes in a dose-dependent manner
IC50 [4]: 2400 ± 500 nM
direct toxicity to neurons (MTT) (primary cortical neurons): no direct toxic to neurons

Source: PMC7261837, “Circumdatin D Exerts Neuroprotective Effects by Attenuating LPS-Induced Pro-Inflammatory Responses and Downregulating Acetylcholinesterase Activity In Vitro and In Vivo” (Frontiers in Pharmacology, 2020)
